pIC50: −log10 of the molar value.
How the values were obtained:
Format in all cases: functional, cell-based
SK-OV-3 = assay: Cytotoxicity against human SKOV3 cells after 72 hrs by SRB assay; conditions: for IC50: sk-ov-3; for pIC50: Homo sapiens, SK-OV-3, 72 h, read-out: IC50
HCT-15 = assay: Cytotoxicity against human HCT15 cells after 72 hrs by SRB assay; conditions: for IC50: hct-15; for pIC50: Homo sapiens, HCT-15, 72 h, read-out: IC50
A549 = assay: Cytotoxicity against human A549 cells after 72 hrs by SRB assay; conditions: for IC50: a549; for pIC50: Homo sapiens, A549, 72 h, read-out: IC50
SK-MEL-2 = assay: Cytotoxicity against human SK-MEL-2 cells after 72 hrs by SRB assay; conditions: for IC50: sk-mel-2; for pIC50: Homo sapiens, SK-MEL-2, 72 h, read-out: IC50

## CC1=C(CO)C(=O)O[C@@H](/C(C)=C2\[C@H](O)C[C@H]3[C@@H]4[C@@H]5O[C@@H]5[C@@]5(O)CC=CC(=O)[C@]5(C)[C@H]4CC[C@]23C)C1
SK-OV-3
  IC50: Not Active
HCT-15
  IC50: Not Active
A549
  IC50: Not Active
SK-MEL-2
  IC50: Not Active

## CC1=C(CO)C(=O)O[C@@H]([C@@H](C)[C@@]2(O)CC[C@H]3[C@@H]4[C@@H]5O[C@@H]5[C@@]5(O)CC=CC(=O)[C@]5(C)[C@H]4CC[C@@]32C)C1
SK-OV-3
  IC50: Not Active
HCT-15
  IC50: Not Active
A549
  IC50: Not Active
SK-MEL-2
  IC50: Not Active

## CC1=C(C)C(=O)O[C@@H]([C@](C)(O)[C@@]2(O)CC[C@H]3[C@@H]4[C@@H]5O[C@@H]5[C@@]5(O)CC=CC(=O)[C@]5(C)[C@H]4CC[C@@]32C)C1
SK-OV-3
  IC50: Not Active
HCT-15
  IC50: Not Active
A549
  IC50: Not Active
SK-MEL-2
  IC50: Not Active

## CC(=O)O[C@@H]1C[C@H]2[C@@H]3[C@@H]4O[C@@H]4[C@@]4(O)CC=CC(=O)[C@]4(C)[C@H]3CC[C@]2(C)/C1=C(\C)[C@H]1CC(C)=C(CO)C(=O)O1
SK-OV-3
  pIC50: < 5.00
HCT-15
  pIC50: 5.12
A549
  pIC50: < 5.00
SK-MEL-2
  pIC50: 5.00

## CC1=C(C)[C@H](O)[C@H]([C@](C)(O)[C@H]2CC[C@H]3[C@@H]4[C@@H]5O[C@@H]5[C@@]5(O)CC=CC(=O)[C@]5(C)[C@H]4CC[C@]23C)OC1=O
SK-OV-3
  pIC50: < 5.00
HCT-15
  pIC50: 5.01
A549
  pIC50: < 5.00
SK-MEL-2
  pIC50: 5.04

## C[C@H]([C@H]1C[C@H](C)[C@@H](C)C(=O)O1)[C@@]1(O)CC[C@H]2[C@@H]3[C@@H]4O[C@@H]4[C@@]4(O)CC=CC(=O)[C@]4(C)[C@H]3CC[C@@]21C
SK-OV-3
  IC50: Not Active
HCT-15
  IC50: Not Active
A549
  IC50: Not Active
SK-MEL-2
  IC50: Not Active

## C[C@H]1C[C@H]([C@](C)(O)[C@H]2CC[C@H]3[C@@H]4[C@H](O)C=C5CC=CC(=O)[C@]5(C)[C@H]4CC[C@]23C)OC(=O)[C@@H]1C
SK-OV-3
  pIC50: 5.06
HCT-15
  pIC50: 5.24
A549
  pIC50: < 5.00
SK-MEL-2
  pIC50: 5.23

## C[C@H]1C[C@H]([C@](C)(O)[C@H]2CC[C@H]3[C@@H]4[C@@H]5O[C@@H]5[C@@]5(O)CC=CC(=O)[C@]5(C)[C@H]4CC[C@]23C)OC(=O)[C@@H]1C
SK-OV-3
  IC50: Not Active
HCT-15
  IC50: Not Active
A549
  IC50: Not Active
SK-MEL-2
  IC50: Not Active

## CC1=C(CO)C(=O)O[C@@H]([C@](C)(O)[C@H]2CC[C@H]3[C@@H]4[C@@H]5O[C@@H]5[C@@]5(O)CC=CC(=O)[C@]5(C)[C@H]4CC[C@]23C)C1
SK-OV-3
  IC50: Not Active
HCT-15
  IC50: Not Active
A549
  IC50: Not Active
SK-MEL-2
  IC50: Not Active

## CC1=C(C)C(=O)O[C@@H]([C@](C)(O)[C@H]2CC[C@H]3[C@@H]4[C@H](O)C=C5CC=CC(=O)[C@]5(C)[C@H]4CC[C@]23C)C1
SK-OV-3
  pIC50: 5.10
HCT-15
  pIC50: 5.29
A549
  pIC50: < 5.00
SK-MEL-2
  pIC50: 5.47

## CC1=C(C)C(=O)O[C@@H]([C@@H](C)[C@]2(O)CC[C@H]3[C@@H]4[C@@H]5O[C@@H]5[C@@]5(O)CC=CC(=O)[C@]5(C)[C@H]4CC[C@@]32C)C1
SK-OV-3
  IC50: Not Active
HCT-15
  IC50: Not Active
A549
  IC50: Not Active
SK-MEL-2
  IC50: Not Active

## COc1cc([C@@H]2c3cc4c(cc3[C@@H](O[C@@H]3O[C@@H]5CO[C@@H](C)O[C@H]5[C@H](O)[C@H]3O)[C@H]3COC(=O)[C@H]23)OCO4)cc(OC)c1O [ETOPOSIDE]
SK-OV-3
  pIC50: 5.74
HCT-15
  pIC50: 6.34
A549
  pIC50: 6.15
SK-MEL-2
  pIC50: 6.10

## CC1=C(C)C(=O)O[C@@H]([C@](C)(O)[C@H]2CC[C@H]3[C@@H]4[C@@H]5O[C@@H]5[C@@]5(O)CC=CC(=O)[C@]5(C)[C@H]4CC[C@]23C)C1 [WITHANOLIDE A]
SK-OV-3
  IC50: Not Active
HCT-15
  IC50: Not Active
A549
  IC50: Not Active
SK-MEL-2
  IC50: Not Active

## CC1=C(C)C(=O)O[C@@H]([C@@H](C)[C@@]2(O)CC[C@H]3[C@@H]4[C@@H]5O[C@@H]5[C@@]5(O)CC=CC(=O)[C@]5(C)[C@H]4CC[C@@]32C)C1 [WITHANONE]
SK-OV-3
  pIC50: < 5.00
HCT-15
  pIC50: 5.23
A549
  pIC50: < 5.00
SK-MEL-2
  pIC50: 5.21

— ChEMBL document CHEMBL4480413, “Cytotoxic Withanolides from the Roots of Indian Ginseng ( Withania somnifera)” (J Nat Prod, 2019)
